# In publication PMC5538626, “Structural and functional analysis of the GABARAP interaction motif (GIM)” (EMBO Reports, 2017):
# Ends that are not written are not given here.
# Key:
# Assay type in all cases: binding
# [1] = target: T1, LC3B (Homo sapiens, UniProt Q9GZQ8); experiment: ITC titration of PLEKHM1-LIR peptides into LC3B; details: ITC, 25°C, pH 7.0; for ΔH: VP-ITC, one-site model, 0.4 mM peptide into 0.020 mM protein, 50 mM Na2HPO4, 100 mM NaCl
# T1 construct: modified Ub-leader (ubiquitin fusion leader) (N); made in house; host or cells: E. coli NEB T7 Express
# Experimental: (§1) The genes for the truncated LC3A^2–121, LC3C^8–125, GABARAP^2–117 and GABARAP‐L1^2–117 proteins were cloned into pET30ΔSE vector between the BamHI and XhoI sites using previously established protocols 38. The chimeric constructs of the PLEKHM1‐LIR attached to the LC3A, GABARAP and GABARAP‐L1 proteins were prepared by inserting the oligonucleotide sequence corresponding to the PLEKHM1‐LIR peptide (P^629[…]^638) and glycine–serine linker into the BamHI site of the pET30ΔSE vector, placing the PLEKHM1‐LIR at the N‐terminal of the mature chimeric protein (similar to 31, 38). For the expression of human LC3 and GABARAP proteins for ITC and NMR experiments, plasmids with appropriate modified Ub‐leaders in pET vectors were used 39. Gene, encoding PLEKHM1‐LIR peptide, was ordered as synthetic oligonucleotides (Eurofins Genomics GmbH) and cloned into the pET39_Ub63_ vector 39 by NcoI–BamHI restriction sites. After TEV cleavage, the resulting peptide has the amino acid sequence GAMG‐P^629[…]^642, where the first four residues (GAMG) are the cloning artefact.
# (§2) The chimeric constructs were expressed as a His‐tag fusion protein in E. coli BL21(DE3) cells. The cells were induced with 0.3 mM IPTG at OD600 0.6 for 16 h at 26°C. The cell pellets were lysed using mechanical sonication in lysis buffer (20 mM Tris–HCl pH 9.0, 100 mM NaCl, 10 mM imidazole, supplemented with 0.1% Triton X‐100). The proteins were purified using Ni‐NTA beads (GE Healthcare) and the His‐tag was cleaved using thrombin (Invitrogen) at room temperature for 16 h. The last step was gel filtration chromatography using a Superdex S200/300 GL column (GE Healthcare). The proteins were concentrated using spin concentrators (Vivaspin). For ITC and NMR studies, the non‐labelled and stable isotopes labelled LC3 and GABARAP proteins were obtained based on the protocols described elsewhere 30, 39. Here, E. coli NEB T7 Express culture transformed with corresponding plasmids were grown till OD600 nm = 1.0 and protein expression was induced with 0.2 mM IPTG. The cultures were incubated at 25°C for 8–12 h before cell harvesting. Isolation and purification procedures were similar to those reported in Ref. 22, 40. Before experiments, all proteins and peptides were equilibrated with a buffer containing 50 mM Na2HPO4, 100 mM NaCl at pH 7.0, and supplied with 5 mM protease inhibitor cocktail.
# (§3) The protocol for preparation of non‐labelled and ^13C,^15N‐labelled PLEKHM1‐LIR peptide was slightly modified to achieve highest yield of the peptide. The 50 ml M9 culture was inoculated with NEB T7 cell transformed with pET39_Ub63‐PLEKHM1‐LIR plasmid and grown overnight at 37°. The collected cells were resuspended in 2 l of either LB or M9 media contained 1.5 g ^15N‐labelled NH4Cl and 3.0 g of ^13C‐labelled glucose. The cultures were grown at 37° till A(600 nm) = 0.9 and supplied with 1 mM of IPTG to induce Ub63‐PLEKHM1‐LIR overexpression (3 h at 37°). After that cells were harvested by centrifugation, re‐suspended in buffer contained 50 mM Tris–HCl pH = 7.9, 200 mM NaCl, 5% glycerol, 0.1 mg/ml DNase A and 4 mM protease inhibitor cocktail. After cell lysis by French press, debris was removed by centrifugation and clear supernatant was applied onto the column contained Ni‐NTA Sepharose equilibrated with the loading buffer (50 mM Tris–HCl pH = 7.9, 250 mM NaCl, 1% glycerol and 20 mM imidazole). Elution was performed with 400 mM imidazole in the same buffer. An aliquot of pure Ub63‐PLEKHM1‐LIR fractions was further purified by gel filtration on Superdex75 26 × 60 column for control ITC and analytical size exclusion chromatography experiments, remaining fusion protein was processed with the TEV‐protease and PLEKHM1‐LIR peptide was purified to 95% purity by reverse Ni‐NTA chromatography and followed gel filtration on Superdex75 26 × 60 column. Peak maximum of peptide was detected at […] (void volume 115 ml). Pure peptide was concentrated in Amicon concentrators with cut‐off of 3 kDa (> 95% retention). […]
# [2] = target: T2, LC3C (Homo sapiens, UniProt Q9BXW4); experiment: ITC titration of PLEKHM1-LIR peptide into LC3C; details: 25°C, pH 7.0
# T2 construct: modified Ub-leader (ubiquitin fusion leader) (N); made in house; host or cells: E. coli NEB T7 Express
# Experimental: as §1, §2, §3
# [3] = target: T3, GABARAP (Homo sapiens, UniProt O95166); experiment: ITC titration of PLEKHM1-LIR peptides into GABARAP; details: ITC; for ΔH: VP-ITC, one-site model, 0.4 mM peptide into 0.020 mM protein, 50 mM Na2HPO4, 100 mM NaCl; for K D of GABARAP lower compared to LC3B / specificity GABARAP over LC3B: GABARAP vs LC3B
# T3 construct: modified Ub-leader (ubiquitin fusion leader) (N); made in house; host or cells: E. coli NEB T7 Express
# Experimental: as §1, §2, §3
# [4] = target: T4, GABARAP-L1 (Homo sapiens, UniProt Q9H0R8); experiment: ITC titration of PLEKHM1-LIR peptide into GABARAP-L1; details: 25°C, pH 7.0
# T4 construct: modified Ub-leader (ubiquitin fusion leader) (N); made in house; host or cells: E. coli NEB T7 Express
# Experimental: as §1, §2, §3
# [5] = target: T5, GABARAP-L2 (Homo sapiens, UniProt P60520); experiment: ITC titration of PLEKHM1-LIR peptide into GABARAP-L2; details: 25°C, pH 7.0
# T5 construct: modified Ub-leader (ubiquitin fusion leader) (N); made in house; host or cells: E. coli NEB T7 Express
# Experimental: as §1, §2, §3
# [6] = VP-ITC, one-site model, 0.4 mM peptide into 0.020 mM protein, 50 mM Na2HPO4, 100 mM NaCl
# [7] = 25°C, pH 7.0, listed as PLEKHM1-LIR
# T3 sequence (O95166 whole entry, the tested form may be a part): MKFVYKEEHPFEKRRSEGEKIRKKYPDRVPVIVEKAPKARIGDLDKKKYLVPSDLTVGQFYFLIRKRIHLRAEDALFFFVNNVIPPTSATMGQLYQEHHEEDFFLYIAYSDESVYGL
# T2 sequence (Q9BXW4 whole entry, the tested form may be a part): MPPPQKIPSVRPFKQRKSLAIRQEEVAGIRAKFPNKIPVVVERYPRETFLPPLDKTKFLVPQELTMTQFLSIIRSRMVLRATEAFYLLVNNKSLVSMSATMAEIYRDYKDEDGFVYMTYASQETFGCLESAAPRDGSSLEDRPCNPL
# T5 sequence (P60520 whole entry, the tested form may be a part): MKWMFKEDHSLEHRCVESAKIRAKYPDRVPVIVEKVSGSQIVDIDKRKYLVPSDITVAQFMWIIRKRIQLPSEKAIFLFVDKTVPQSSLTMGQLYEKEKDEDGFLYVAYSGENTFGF
# T4 sequence (Q9H0R8 whole entry, the tested form may be a part): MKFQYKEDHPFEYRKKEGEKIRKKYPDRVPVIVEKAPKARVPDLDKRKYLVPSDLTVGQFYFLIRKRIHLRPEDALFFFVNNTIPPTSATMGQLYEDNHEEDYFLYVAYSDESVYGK
sequence,measurement,setting,value
GAMGPQQEDEWVNVQYPD [PLEKHM1‐LIR WT],ΔH,[1],-5.8 ± 0.2 kcal/mol
same,ΔH,[1]; listed as PLEKHM1-LIR,-5.8 ± 0.2 kcal/mol
same,KA,[1],0.16 ± 0.01 ×10^6 M^−1
same,N (number of binding sites),[1],1.06 ± 0.01
same,ΔG,[1],-7.09 kcal/mol
same,ΔS,[1],+4.27 cal mol^−1 K^−1
same,−T × ΔS,[1],-1.27 kcal/mol
same,KA,[1]; listed as PLEKHM1-LIR,0.16±0.01 ×10^6 M^−1
same,ΔG,[1]; listed as PLEKHM1-LIR,-7.09 kcal/mol
same,−T × ΔS,[1]; listed as PLEKHM1-LIR,-1.27 kcal/mol
same,ΔH,[2]; [6],-8.3 ± 0.2 kcal/mol
same,KA,[2],0.29 ± 0.02 ×10^6 M^−1
same,N (number of binding sites),[2],0.99 ± 0.02
same,ΔG,[2],-7.48 kcal/mol
same,ΔS,[2],−2.83 cal mol^−1 K^−1
same,−T × ΔS,[2],+0.84 kcal mol^−1
same,ΔH,"[3]; 25°C, pH 7.0",-10.6 ± 0.1 kcal/mol
same,ΔH,[3]; [7],-10.60 ± 0.1 kcal/mol
same,KA,"[3]; 25°C, pH 7.0",1.8 ± 0.1 ×10^6 M^−1
same,N (number of binding sites),"[3]; 25°C, pH 7.0",1.00 ± 0.01
same,ΔG,"[3]; 25°C, pH 7.0",-8.54 kcal/mol
same,ΔS,"[3]; 25°C, pH 7.0",−6.92 cal mol^−1 K^−1
same,−T × ΔS,"[3]; 25°C, pH 7.0",+2.06 kcal mol^−1
same,KA,[3]; [7],1.8±0.1 ×10^6 M^−1
same,ΔG,[3]; [7],-8.54 kcal/mol
same,ΔS,[3]; [7],-6.92 cal mol^−1 K^−1
same,K D of GABARAP lower compared to LC3A (times),[3]; GABARAP vs LC3A,approximately eight
same,K D of GABARAP lower compared to LC3B / specificity GABARAP over LC3B,[3],11 fold
same,K D of GABARAP lower compared to LC3B / specificity GABARAP over LC3B,[3]; listed as PLEKHM1‐LIR peptide,approximately 11 fold
same,ΔH,[4]; [6],-7.8 ± 0.1 kcal/mol
same,KA,[4],1.3 ± 0.1 ×10^6 M^−1
same,N (number of binding sites),[4],1.00 ± 0.01
same,ΔG,[4],-8.35 kcal/mol
same,ΔS,[4],+1.94 cal mol^−1 K^−1
same,−T × ΔS,[4],-0.58 kcal/mol
same,ΔH,[5]; [6],-6.1 ± 0.1 kcal/mol
same,KA,[5],1.07 ± 0.03 ×10^6 M^−1
same,N (number of binding sites),[5],1.05 ± 0.01
same,ΔG,[5],-8.23 kcal/mol
same,ΔS,[5],+7.00 cal mol^−1 K^−1
same,−T × ΔS,[5],-2.09 kcal/mol
